Five compounds from patent US20150141478A1, “SERIES OF DRUGS USING PHOTOFRIN TO CATALYZE DECOMPOSITION OF HYDROGEN PEROXIDE” (Wuxi Zhaozhen Radiation Technology Co., Ltd., priority 2012, published 2015) can be followed below.

Test [1] deals with plaques in thoracic aorta. As to conditions: 5-ALA 80 mg/kg i.p., then i.v. substrate (carbamide peroxide), 5Gy once, 7th day after therapy.
Protocol: (1) Male New Zealand rabbits, bodyweight 3-4 kg, were fed with diet containing 1% cholesterol and pork fat, raised for 11 weeks, until atherosclerotic plaques occurred at vessels of eye ground at both sides and artery.
(2) The rabbits were anesthetized with ketamine and thiopental sodium.
(3) Target regions of plaques at artery to be treated were determined by total body CT plain scanning and CTA enhancing.
(4) Target regions of plaques at artery to be treated were sketched by a therapy planning system, to formulate a therapeutical plan suitable for RCDT, using GTV dose of up to 5.0Gy, irradiated once. Normal feeding was restored during the procedure.
(5) It was 2 h before the irradiation that 5-ALA (80 mg/kg in saline 5 ml) was intraperitoneally injected, carbamide peroxide (injection containing H2O2, 80 mg/kg) in 5 ml of saline was slowly injected via ear vein immediately before the irradiation, and the therapeutical plan was carried out immediately after the injection of carbamide peroxide.
(6) It was 5-7 days after irradiation the CTA was reexamined, and the situations of elimination of vascular plaques were recorded.
The plaques are used as target regions, positioned, and radiotherapy plan is formulated. It is 1.5 h after intraperitoneal injection of 5-ALA (80 mg/kg of body weight) that a substrate is intravenously dripped, the vascular plaques are irradiated with 5Gy once. […]
Test [2] can be described thus: Suppression of the decomposition of H2O2 catalysed by haematoporphyrin and .OH, using .OH scavengers. The note with it: 1.5% H2O2, 20% DMSO, 15% ethanol, 5% mannitol.
Protocol: (4) 15 uM Haematoporphyrin derivative (HPD) was added, or 15 uM acidified porphyrin (Protoporphyrin IX, PpIX) was added.
(5) The vacuum bottles were irradiated with 10 MeV X-ray for about 1 min, dose of 5Gy, to start the decomposition reaction of H2O2. The reaction was terminated by stopping irradiation.
Test [3] can be described thus: Decomposition of H2O2 catalysed by photofrin alone under weak alkali, 1O2 measured by DMA fluorescence. The note with it: 15 uM, H2O2 lower than or equal to 0.15%, 25° C., 8 h, no activation. The protocol: (1) 10 ml vacuum bottles were used, and the vacuum bottles were totally sealed with Kodak photographic film light protecting paper.
(2) H2O2 solutions (in DMF: H2O=1:5) with different concentrations were added to the sealed vacuum bottles.
(3) 5 uM 9,10-dimethylanthracene (DMA) was added. DMA was a kind of ^1O2 specific indicator (probe), DMA had intensive fluorescence property, after binding to ^1O2, endorperoxide without fluorescence property was formed, so that the amount of the generated ^1O2 is in inverse proportion with the content of DMA.
(4) 15 uM Haematoporphyrin derivative was added, and reacted at 25° C. for 8 h.

For the compound `NCC(=O)CCC(=O)O` [5-ALA], the “plaques in thoracic aorta by CTA visualization and MR” value in test [1] is reported as “completely disappeared”.
On to `C[S+](C)[O-]` [DMSO], for which, in test [2], the “inhibition of 1O2 yield” value is recorded as 75.1%.
Take `CCO` [ethanol]: the “inhibition of 1O2 yield” value in test [2] was 43.0%.
Turning to `OC[C@@H](O)[C@@H](O)[C@H](O)[C@H](O)CO` [mannitol], the “inhibition of 1O2 yield” value in test [2] turned out to be 17.7%.
Consider Haematoporphyrin derivative, for which the “catalysis of the decomposition reaction of H2O2 to generate 1O2” value in test [3] is “cannot be catalyzed”.
